We go through 14 compounds from patent US12441768B2, “Compositions and methods for treating endometriosis” (EndoMet Biosciences, Inc., priority 2018, dated 2025).

Each structure is given as a SMILES string. Where a SMILES comes first, the peptide text is derived from it. Some results are limits rather than exact numbers.

For the test, the target named is T1, β-catenin (Homo sapiens, UniProt P35222).
T1 sequence (P35222 1-781): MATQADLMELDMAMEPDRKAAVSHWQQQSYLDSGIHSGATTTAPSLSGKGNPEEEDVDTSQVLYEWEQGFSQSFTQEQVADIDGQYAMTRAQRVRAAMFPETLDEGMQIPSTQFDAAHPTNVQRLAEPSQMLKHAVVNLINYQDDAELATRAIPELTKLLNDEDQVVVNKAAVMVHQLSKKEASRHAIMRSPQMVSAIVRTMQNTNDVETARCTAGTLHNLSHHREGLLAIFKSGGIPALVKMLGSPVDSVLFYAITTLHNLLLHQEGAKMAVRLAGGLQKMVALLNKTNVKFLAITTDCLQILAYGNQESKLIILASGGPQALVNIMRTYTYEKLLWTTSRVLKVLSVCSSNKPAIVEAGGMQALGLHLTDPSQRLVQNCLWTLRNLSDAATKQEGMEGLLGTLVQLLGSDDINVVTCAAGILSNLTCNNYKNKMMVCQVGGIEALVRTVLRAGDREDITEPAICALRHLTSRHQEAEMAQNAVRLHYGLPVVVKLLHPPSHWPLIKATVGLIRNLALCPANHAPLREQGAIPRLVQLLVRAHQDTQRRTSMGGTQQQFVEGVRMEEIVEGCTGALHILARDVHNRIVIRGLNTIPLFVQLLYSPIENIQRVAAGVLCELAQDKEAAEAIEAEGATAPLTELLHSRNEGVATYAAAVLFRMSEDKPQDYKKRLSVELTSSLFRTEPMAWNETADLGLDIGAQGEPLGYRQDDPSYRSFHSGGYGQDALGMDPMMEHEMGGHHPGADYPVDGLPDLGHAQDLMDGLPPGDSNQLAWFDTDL
The test is described as follows: KD50 measurement using competitive fluorescence polarization (FP) with labelled TCF4. Type of test: binding. Particulars: fluorescence polarization, β-catenin; for Kd: read-out: β-Cat FP KD. The source says: Fluorescence polarization (FP) is another method used to analyze protein-ligand interactions. This methodology measures the change in fluorescence light emitted by a labelled compound free vs. conjugated to another compound in solution. Upon binding of the fluorescent molecule to a complex, polarization increases because of limited rotation of the fluorescent tracer. Competitive FP is often utilized in drug screens as it is formatted for high throughput screens in a plate format. This immunoassay is performed by introducing a non-conjugated drug to compete for binding to the labelled competitor-ligand complex, leading to a reduction in polarization. TCF4 protein is utilized for the competitive assay as (1) this protein influences the full activation of the Wnt pathway and (2) shares homology with the β-catenin inhibitors. Exemplary methodology is described in Example 13. Data were analyzed and plotted in Microsoft Excel (Microsoft, Redmond, WA).
5 nM of labelled TCF4 protein was added to solution of 100 nM of β-catenin and incubated at room temperature in 96-well plates (Greiner 96 Flat transparent plates, Millipore Sigma, Carlsbad CA). Varying concentrations of β-catenin inhibitor candidate (SEQ ID NO: 404) were then added in a series of serial dilutions from 10 nM to 30 uM of inhibitor in different wells of the plate. The fluorescence polarization was read by Infinite M1000 (Tecan, Baldwin Park CA) at excitation wavelength of 470 nm and measured at emission wavelength of 520 nm. […] The experiments were performed three times and data were analyzed and plotted in Microsoft Excel (Microsoft, Redmond, WA).
Background: In fluorescence polarisation assays a small probe gives low polarisation when free and higher when bound to something large.

In the case of `CC[C@H](C)[C@@H]1NC(=O)[C@H](CC(C)C)NC(=O)[C@H](Cc2ccccc2)NC(=O)[C@H](Cc2c[nH]c3ccccc23)NC(=O)[C@@H](N)CCCCNC(=O)CCCNC(=O)C[C@@H](C(=O)O)NC(=O)[C@H](Cc2c[nH]c3ccccc23)NC(=O)[C@H](C)NC(=O)[C@H](CS)NC1=O` [compound 247] (HELM PEPTIDE1{K.W.F.L.I.C.A.W.[O=C(O)[C@H](CC(=O)[*:2])N[*:1]].[O=C(CCCN[*:1])[*:2]]}$PEPTIDE1,PEPTIDE1,1:R3-10:R2$$$V2.0), the “β-Cat FP Hill slope” value stood at 2.34 and the dissociation constant (Kd) (in general, the constant that tells how readily two partners part at equilibrium) is less than 0.4 µM.

Consider `CC[C@H](C)[C@@H]1NC(=O)[C@H](CC(C)C)NC(=O)[C@H](Cc2ccccc2)NC(=O)[C@H](Cc2c[nH]c3ccccc23)NC(=O)[C@@H](N)CCCCNC(=O)CCCCNC(=O)C[C@@H](C(=O)O)NC(=O)[C@H](Cc2c[nH]c3ccccc23)NC(=O)[C@H](C)NC(=O)[C@H](CS)NC1=O` [compound 248] (HELM PEPTIDE1{K.W.F.L.I.C.A.W.[O=C(O)[C@H](CC(=O)[*:2])N[*:1]].[O=C(CCCCN[*:1])[*:2]]}$PEPTIDE1,PEPTIDE1,1:R3-10:R2$$$V2.0), for which the Kd is greater than 30 µM. Consider `CC[C@H](C)[C@@H]1NC(=O)[C@H](CC(C)C)NC(=O)[C@H](Cc2ccccc2)NC(=O)[C@H](Cc2c[nH]c3ccccc23)NC(=O)[C@@H](N)CCCCNC(=O)CCCCCNC(=O)C[C@@H](C(=O)O)NC(=O)[C@H](Cc2c[nH]c3ccccc23)NC(=O)[C@H](C)NC(=O)[C@H](CS)NC1=O` [compound 249] (HELM PEPTIDE1{K.W.F.L.I.C.A.W.[O=C(O)[C@H](CC(=O)[*:2])N[*:1]].[O=C(CCCCCN[*:1])[*:2]]}$PEPTIDE1,PEPTIDE1,1:R3-10:R2$$$V2.0), for which the “β-Cat FP Hill slope” value is given as 0.92 and the Kd was 0.4 to 1 µM. Turning to `CC[C@H](C)[C@@H]1NC(=O)[C@H](CC(C)C)NC(=O)[C@H](Cc2ccccc2)NC(=O)[C@H](Cc2c[nH]c3ccccc23)NC(=O)CCCCCCCCCNC(=O)[C@H](Cc2c[nH]c3ccccc23)NC(=O)[C@H](C)NC(=O)[C@H](CS)NC1=O` [compound 250] (HELM PEPTIDE1{A.W.[O=C(CCCCCCCCCN[*:1])[*:2]].W.F.L.I.C}$PEPTIDE1,PEPTIDE1,1:R1-8:R2$$$V2.0), the dissociation constant (Kd) was 1 to 10 µM.

As for `CC[C@H](C)[C@@H]1NC(=O)[C@H](CC(C)C)NC(=O)[C@@H](N)CCCCNC(=O)C[C@@H](C(=O)O)NC(=O)[C@H](Cc2c[nH]c3ccccc23)NC(=O)[C@H](Cc2ccccc2)NC(=O)[C@H](C)NC1=O` [compound 251] (HELM PEPTIDE1{K.L.I.A.F.W.D}$PEPTIDE1,PEPTIDE1,1:R3-7:R3$$$V2.0), the Kd was greater than 30 µM. Still for that read-out and setting: as for `CC[C@H](C)[C@@H]1NC(=O)[C@H](CC(C)C)NC(=O)[C@@H](NC(C)=O)CCCCNC(=O)C[C@@H](C(=O)O)NC(=O)[C@H](Cc2c[nH]c3ccccc23)NC(=O)[C@H](Cc2ccccc2)NC(=O)[C@H](C)NC1=O` [compound 252] (HELM PEPTIDE1{[ac].K.L.I.A.F.W.D}$PEPTIDE1,PEPTIDE1,2:R3-8:R3$$$V2.0), the figure is greater than 30 µM. On the same count and under the same terms, then `CC[C@H](C)[C@@H]1NC(=O)[C@H](CC(C)C)NC(=O)[C@H](Cc2ccccc2)NC(=O)[C@@H](N)CCCCNC(=O)C[C@@H](C(=O)O)NC(=O)[C@H](Cc2c[nH]c3ccccc23)NC(=O)[C@H](Cc2ccccc2)NC(=O)[C@H](C)NC1=O` [compound 253] (HELM PEPTIDE1{K.F.L.I.A.F.W.D}$PEPTIDE1,PEPTIDE1,1:R3-8:R3$$$V2.0), with greater than 30 µM. Same read-out and setting: as for `CC[C@H](C)[C@@H]1NC(=O)[C@H](CC(C)C)NC(=O)[C@H](Cc2ccccc2)NC(=O)[C@@H](NC(C)=O)CCCCNC(=O)C[C@@H](C(=O)O)NC(=O)[C@H](Cc2c[nH]c3ccccc23)NC(=O)[C@H](Cc2ccccc2)NC(=O)[C@H](C)NC1=O` [compound 254] (HELM PEPTIDE1{[ac].K.F.L.I.A.F.W.D}$PEPTIDE1,PEPTIDE1,2:R3-9:R3$$$V2.0), the figure is greater than 30 µM. `CC[C@H](C)[C@@H]1NC(=O)[C@H](CC(C)C)NC(=O)[C@H](CC2CCCCC2)NC(=O)[C@H](Cc2c[nH]c3ccccc23)NC(=O)[C@@H](NC(C)=O)CCCCNC(=O)C[C@@H](C(=O)O)NC(=O)[C@H](Cc2c[nH]c3ccccc23)NC(=O)[C@H](C)NC(=O)[C@H](CO)NC1=O` [compound 255] (HELM PEPTIDE1{[ac].K.W.[Cha].L.I.S.A.W.D}$PEPTIDE1,PEPTIDE1,2:R3-10:R3$$$V2.0): the dissociation constant (Kd) was greater than 30 µM. Regarding `CC[C@H](C)[C@@H]1NC(=O)[C@H](CC(C)C)NC(=O)[C@H](Cc2ccccc2)NC(=O)[C@H](Cc2c[nH]c3ccccc23)NC(=O)[C@@H](N)CCCCNC(=O)CCNC(=O)C[C@@H](C(=O)O)NC(=O)[C@H](Cc2c[nH]c3ccccc23)NC(=O)[C@H](C)NC(=O)[C@H](CS)NC1=O` [compound 260] (HELM PEPTIDE1{K.W.F.L.I.C.A.W.[O=C(O)[C@H](CC(=O)[*:2])N[*:1]].[bAla]}$PEPTIDE1,PEPTIDE1,1:R3-10:R2$$$V2.0), the “β-Cat FP Hill slope” value is 1.53 and the Kd was in the range of 1 to 10 µM.

For the compound `CC[C@H](C)[C@H](NC(=O)[C@H](CC(C)C)NC(=O)[C@@H](NC(=O)[C@H](Cc1c[nH]c2ccccc12)NC(C)=O)[C@@H](C)CC)C(=O)N[C@@H](C)C(=O)N[C@@H](Cc1ccccc1)C(=O)N[C@@H](Cc1c[nH]c2ccccc12)C(=O)NCC(=O)O` [compound 263] (Ac-WILIAFWG-OH), the “β-Cat FP Hill slope” value is recorded as 3 and the dissociation constant (Kd) lay within 0.4 to 1 µM.

For `CC[C@H](C)[C@H](NC(=O)[C@H](CC(C)C)NC(=O)[C@@H](NC(=O)[C@H](Cc1c[nH]c2ccccc12)NC(=O)[C@H](CCSC)N(C)C)[C@@H](C)CC)C(=O)N[C@@H](CO)C(=O)N[C@@H](Cc1ccccc1)C(=O)N[C@@H](Cc1c[nH]c2ccccc12)C(=O)NCC(=O)O` [compound 264] (HELM PEPTIDE1{[CSCC[C@@H](C(=O)[*:2])N(C)C].W.I.L.I.S.F.W.G}$$$$V2.0), the “β-Cat FP Hill slope” value is listed as 0.7 and the equilibrium dissociation constant (Kd) lay within 1 to 10 µM.

`CC[C@H](C)[C@H](NC(=O)[C@H](CC(C)C)NC(=O)[C@@H](NC(=O)[C@@H](N)Cc1c[nH]c2ccccc12)[C@@H](C)CC)C(=O)N[C@@H](C)C(=O)N[C@@H](Cc1ccccc1)C(=O)N[C@@H](Cc1c[nH]c2ccccc12)C(=O)NCC(=O)O` [compound 265] (H-WILIAFWG-OH): the “β-Cat FP Hill slope” value stood at 0.7 and the Kd was in the range of 1 to 10 µM. Consider `CC[C@H](C)[C@H](NC(=O)[C@H](CC(=O)O)NC(=O)[C@H](CCCNC(=N)N)NC(=O)[C@H](CC(C)C)NC(=O)[C@@H](NC(=O)[C@H](CCC(N)=O)NC(=O)[C@H](CC(C)C)NC(=O)[C@H](CO)NC(=O)[C@H](CCCNC(=N)N)NC(=O)[C@H](CCC(=O)O)NC(=O)[C@H](CCCNC(=N)N)NC(=O)[C@H](Cc1c[nH]cn1)NC(=O)[C@H](CCC(=O)O)NC(=O)[C@H](CC(C)C)NC(=O)[C@H](CCC(N)=O)NC(=O)[C@H](CCC(=O)O)NC(=O)[C@H](CCC(N)=O)NC(=O)[C@H](CO)NC(=O)[C@H](CC(C)C)NC(=O)CNC(=O)[C@H](CC(=O)O)NC(=O)[C@@H]1CCCN1C(=O)[C@H](CC(N)=O)NC(C)=O)[C@@H](C)O)C(=O)N[C@@H](CCC(N)=O)C(=O)N[C@@H](CCCNC(=N)N)C(=O)N[C@@H](CCSC)C(=O)N[C@@H](CC(C)C)C(=O)N[C@@H](Cc1ccccc1)C(=O)N1CCC[C@H]1C(=O)N[C@@H](CC(=O)O)C(=O)N[C@@H](CCC(=O)O)C(=O)N[C@@H](CCCCN)C(=O)N[C@@H](CCC(=O)O)C(=O)N[C@@H](Cc1ccccc1)C(=O)N[C@H](C(=O)NCCC(=O)NCCC(=O)N[C@@H](CCCCN)C(N)=O)[C@@H](C)O` [compound 270], for which the Kd is greater than 30 µM.
